Laboratory results: patent US20230210888A1, “PHOTOTHERANOSTIC NANOAGENTS WITH EXCELLENT ATHEROSCLEROTIC PLAQUE-TARGETING AND PLAQUE-PENETRATING PROPERTIES, AND USE THEREOF” (Korea University Research and Business Foundation, priority 2021, published 2023)

Legend:
[1] = Singlet oxygen generation (SOSG fluorescence) under 670 nm laser; format: physicochemical; conditions: PBS with 1% Tween 20, 5 μM based on Ce6, 670 nm 50 mW/cm2, 0-120 s
Protocol: All three solutions contained 1 μM SOSG. The fluorescence intensity of SOSG (Ex(excitation)/Em(emission): 504 nm/525 nm) was measured by irradiating a laser (670 nm, 50 mW/cm^2) every 30 seconds from 0 to 120 seconds.

[2] = Skin phototoxicity after intravenous injection and 670 nm laser; format: in vivo, Balb/c mice; conditions: 2 mg/kg (equiv. of Ce6) iv, 670 nm 50 mW/cm2 5 min 1 h after injection; 2nd and 3rd days
Protocol: One hour after injection, a near-infrared (670 nm) laser (50 mW/cm^2) was irradiated for 5 minutes.

## (17S,18S)-18-(2-carboxyethyl)-20-(carboxymethyl)-12-ethenyl-7-ethyl-3,8,13,17-tetramethyl-17,18,22,23-tetrahydroporphyrin-2-carboxylic acid [Ce6]
[1]
  SOSG fluorescence intensity (singlet oxygen generation): tendency to increase similarly to each other
[2]
  skin phototoxicity (erythema): erythema occurred
